# Measured values from patent US20040127504A1, “Benzimidazoles that are useful in treating sexual dysfunction” (priority 2002, published 2004).
# Test system: not given
# Settings: not given
row,SMILES,melting point [°C]
1,"N#Cc1cccnc1N1CCN(Cc2nc3ccccc3[nH]2)CC1 [Example 4, 2-[4-(1H-benzimidazol-2-ylmethyl)piperazin-1-yl]nicotinonitrile]",208 to 210
2,"c1ccc2[nH]c(CN3CCN(c4nccs4)CC3)nc2c1 [Example 7, 2-{[4-(1,3-thiazol-2-yl)piperazin-1-yl]methyl}-1H-benzimidazole]",203 to 205
3,"O=C(N1CCCC1)n1c(CN2CCN(c3ccccn3)CC2)nc2ccccc21 [Example 9, 2-[(4-pyridin-2-ylpiperazin-1-yl)methyl]-1-(pyrrolidin-1-ylcarbonyl)-1H-benzimidazole]",120 to 121
4,"CN(C)C(=O)n1c(CN2CCN(c3ccccn3)CC2)nc2ccccc21 [Example 10, N,N-dimethyl-2-[(4-pyridin-2-ylpiperazin-1-yl)methyl]-1H-benzimidazole-1-carboxamide]",174 to 176
5,"N#Cc1ccccc1N1CCN(Cc2nc3ccccc3[nH]2)CC1 [Example 12, 2-[4-(1H-benzimidazol-2-ylmethyl)piperazin-1-yl]benzonitrile]",236 to 237
6,"Oc1ccc(N2CCN(Cc3nc4ccccc4[nH]3)CC2)cc1 [Example 17, 4-[4-(1H-benzimidazol-2-ylmethyl)piperazin-1-yl]phenol]",206 to 209
7,"CSc1ccccc1N1CCN(Cc2nc3ccccc3[nH]2)CC1 [Example 18, 2-({4-[2-(methylthio)phenyl]piperazin-1-yl}methyl)-1H-benzimidazole]",214 to 216

# Next, values leading:
row,melting point [°C],SMILES
1,144 to 145,Oc1ccc(N2CCN(Cc3nc4ccccc4[nH]3)CC2)nc1 [6-[4-(1H-benzimidazol-2-ylmethyl)piperazin-1-yl]pyridin-3-ol]
2,198 to 200,"c1cnc(N2CCN(Cc3nc4ccccc4[nH]3)CC2)nc1 [Example 2, 2-[(4-pyrimidin-2-ylpiperazin-1-yl)methyl]-1H-benzimidazole]"
3,245 to 246,"Clc1ccccc1N1CCN(Cc2nc3ccccc3[nH]2)CC1 [Example 13, 2-{[4-(2-chlorophenyl)piperazin-1-yl]methyl}-1H-benzimidazole]"
4,262 to 264,"Fc1ccccc1N1CCN(Cc2nc3ccccc3[nH]2)CC1 [Example 14, 2-{[4-(2-fluorophenyl)piperazin-1-yl]methyl}-1H-benzimidazole]"
5,208 to 216,"Oc1ccccc1N1CCN(Cc2nc3ccccc3[nH]2)CC1 [Example 20, 2-[4-(1H-benzimidazol-2-ylmethyl)piperazin-1-yl]phenol]"
6,207 to 209,"CC1CN(c2ccccn2)CCN1Cc1nc2ccccc2[nH]1 (centres unmarked) [Example 24, 2-[(2-methyl-4-pyridin-2-ylpiperazin-1-yl)methyl]-1H-benzimidazole]"
7,149 to 151,"C[C@H]1CN(c2ccccn2)CCN1Cc1nc2ccccc2[nH]1 [Example 25, 2-{[(2S)-2-methyl-4-pyridin-2-ylpiperazin-1-yl]methyl}-1H-benzimidazole]"
8,151 to 153,"C[C@@H]1CN(c2ccccn2)CCN1Cc1nc2ccccc2[nH]1 [Example 26, 2-{[(2R)-2-methyl-4-pyridin-2-ylpiperazin-1-yl]methyl}-1H-benzimidazole]"
9,210 to 212,"Fc1cccnc1N1CCN(Cc2nc3ccccc3[nH]2)CC1 [Example 28, 2-{[4-(3-fluoropyridin-2-yl)piperazin-1-yl]methyl}-1H-benzimidazole]"

# Test system: Male Fitch ferrets
# Parameters: species or system ferret
# Settings: in vivo, sc
# Procedure: Male Fitch ferrets (body weights 1.0-1.5 kg) were obtained from Marshall Farms. Ferrets were fasted overnight before experimentation. Apomorphine or a compound of the present invention was administrated subcutaneously; animals were placed individually in observation cages and the drug-induced emesis and signs of nausea were determined (by direct observation) for a period of 90 minutes following drug injection. Nausea was characterized by behaviors such as licking, gagging, backing, head burying, and intense abdominal grooming. Emesis was usually preceded by these behaviors and was characterized by rhythmic abdominal contractions which were associated with vomiting or retching movement.
# Sterile saline was used as vehicle. Six animals were used per dose.
row,SMILES,induction of emesis in ferrets
1,c1ccc(N2CCN(Cc3nc4ccccc4[nH]3)CC2)nc1 [2-[(4-pyridin-2-ylpiperazin-1-yl)methyl]-1H-benzimidazole],did not induce emesis
